Measured values from US9526717B2, “Composition for treating immune diseases containing daurinol compound as active ingredient” (THE CATHOLIC UNIVERSITY OF KOREA INDUSTRY-ACADEMIC …, priority 2013, dated 2016).

Assays:
[1] = tested on: mouse with induced inflammatory bowel disease (IBD); test: Inflammatory cytokines in the serum of IBD animal model (ELISA); format: in vivo; details: IBD mice treated with daurinol
From the text: For the confirmation of the effect of the daurinol compound of the present invention on the treatment of inflammatory bowel disease, the present inventors first constructed an animal model with induced inflammatory bowel disease. For the experimental model, C57BL/6(H-2kb) mice were used. For the construction of an animal model with induced inflammatory bowel disease, the mice were fed with 3.5% dextran sulfate sodium (DSS) and water for a week, thereby preparing an animal model with induced inflammatory bowel disease.
The present inventors divided the experimental animals into a normal control group, a group of an animal model with induced inflammatory bowel disease, and a group of an animal model with induced inflammatory bowel disease treated with daurinol or a TNF-α inhibitor, and the group treated with daurinol was administered orally and intrarectally with daurinol (20 mg/kg) from the 4th day after the induction with the disease.
Sera were isolated from a mouse with induced inflammatory bowel disease (IBD), and mice treated with daurinol and TNF-α inhibitor, respectively. The levels of IL-17, IFNγ, IL-6, and the like, which are inflammatory cytokines, in the isolated sera were measured by ELISA assay.

[2] = tested on: splenocyte cell line; test: TNF-α secretion of LPS treated splenocyte cell line (sandwich ELISA); format: cell-based; details: 20 μM daurinol; LPS 100 ng/mL
Procedure: For this purpose, a splenocyte cell line was treated with anti-CD3 antibodies (0.5 μg/mL) to induce the secretion of IL-17, or treated with LPS (100 ng/mL) to induce the secretion of TNF-α. Then, the splenocyte cell line was treated with daurinol at concentrations of 0.5 μM, 2.5 μM, and 20 μM, and the supernatants were combined and the amount of IL-17 and TNF-α were examined by sandwich ELISA assay. The resultant was reacted in a 96-well plate with monoclonal anti-IL-17 or anti-TNF-α (2 μg/mL) at 4° C. overnight, and upon reaction, the non-specific binding was blocked using a blocking solution (1% BSA/PBST). IL-17 recombinant or TNF-α in a half amount was continuously diluted and used as standards, and the supernatant of cell culture was reacted at room temperature for 2 hours. Then, the biotinylated anti-IL-17 was reacted at room temperature for 2 hours, washed 4 times, and added with ExtraAvidin-alkaline phosphatase conjugate after dilution, and reacted at room temperature for 2 hours. Subsequently, PNPP/DEA solution was added thereto to fix color and absorbance was measured at 405 nm.

[3] = tested on: animal model with a collagen induced arthritis (CIA); test: Evaluation of arthritis index in animal model with collagen induced arthritis; format: in vivo, mouse; details: CIA DBA/1J mice, daurinol 20 mg/kg intravenously, total of 9 times, observed until 7th week
[4] = tested on: splenocytes cell line; test: MTT assay for cytotoxicity; format: cell-based; details: splenocytes cell line 2×10^5 cells, 96-well plate
Procedure: Additionally, MTT assay was performed for the observation of cytotoxicity by daurinol treatment. To this end, splenocytes cell line (2×10^5 cells) were plated on a 96-well plate, and daurinol was treated with MTT reagent and wrapped with aluminum foil, and reacted at 37° C. for 4 hours. After 4 hours, the crystals formed were dissolved in DMSO and the absorbance was measured using the ELISA reader.

[5] = tested on: splenocytes of an animal model with obesity-derived rheumatoid arthritis; test: IL-17 ELISA in splenocytes of animal model with obesity arthritis; format: cell-based; details: daurinol 1 μM and 5 μM, anti-CD3 0.5 μg/mL
Procedure: The splenocytes of an animal model with obesity-derived rheumatoid arthritis were treated with daurinol (1 μM and 5 μM) and anti-CD3 (0.5 μg/mL), and IL-17, the inflammatory cytokine expressed thereafter, was evaluated via ELISA assay.

[6] = tested on: animal model with collagen induced arthritis (CIA); test: Histological examination of joints of CIA animals; format: in vivo, mouse; details: injected intravenously, three weeks after, H&E, Toluidine blue, Safranin O
[7] = tested on: CD4+ T cells; test: Inhibition of T cell proliferation in allogenic reaction in vitro; format: cell-based, mouse; details: daurinol 0.5, 2, 10 and 20 μM
Procedure: (§1) For the confirmation of the effect of the daurinol compound on the inhibition of T cell proliferation and the expression amount of IL-17, the CD4+ T cells (2×10^5 cells) of a normal recipient (Balb/c, responder), and the T cell-removed splenocytes (2×10^5 cells) derived from a recipient (homogenic) or the splenocytes (2×10^5 cells) derived from a donor (C57BL/6, stimulator, allogenic) exposed to irradiation were added to each well of a 96-well round bottom plate, mixed, and cultured in vitro. In particular, the T cell proliferation and the secretion of IL-17 when an allogenic reaction was untreated with daurinol or treated with daurinol at 0.5 μM, 2 μM, 10 μM, and 20 μM, respectively, were observed.

[8] = tested on: VEGF; test: VEGF expression in human large intestine cell line HT-29; format: cell-based
[9] = tested on: regulatory T lymphocytes (Treg); test: Regulatory T cells (Treg) by flow cytometer in allogenic reaction; format: cell-based, mouse; details: control not treated 7.27%
Procedure: as §1
In this regard, for the confirmation of the effect of the daurinol compound according to the present invention on the activity of regulatory T lymphocytes (Treg), the present inventors analyzed the T cells isolated in Example <4-2> by a flow cytometer. That is, the T cells isolated in Example <4-2> were collected, washed with the FACs buffer, and reacted at 4° C. for the blocking of nonspecific binding for 5 minutes, and washed with the FACs buffer. […] Upon staining of the cells, the cells were washed with buffer and analyzed using the fluorescent-activated cell sorter (FACs).

[10] = tested on: animal model with inflammatory bowel disease; test: Expression of inflammatory cytokines in the tissues of the large intestine of IBD model; format: in vivo, mouse; details: daurinol treated
From the text: For the confirmation of the effect of the daurinol compound of the present invention on the treatment of inflammatory bowel disease, the present inventors first constructed an animal model with induced inflammatory bowel disease. For the experimental model, C57BL/6(H-2kb) mice were used. For the construction of an animal model with induced inflammatory bowel disease, the mice were fed with 3.5% dextran sulfate sodium (DSS) and water for a week, thereby preparing an animal model with induced inflammatory bowel disease. The present inventors divided the experimental animals into a normal control group, a group of an animal model with induced inflammatory bowel disease, and a group of an animal model with induced inflammatory bowel disease treated with daurinol or a TNF-α inhibitor, and the group treated with daurinol was administered orally and intrarectally with daurinol (20 mg/kg) from the 4th day after the induction with the disease.

## COc1cc2c(-c3ccc4c(c3)OCO4)c3c(cc2cc1O)COC3=O [daurinol]
[1]
  level of IFNγ in serum (ELISA): significantly inhibits
  level of IL-6 in serum (ELISA): significantly inhibits
  level of IL-17 in serum (ELISA): significantly inhibits
[2]
  secretion of TNF-α decreased by: about 40%
[3]
  arthritis index: almost no increase in arthritis index
[4]
  cytotoxicity according to the concentration of daurinol (MTT): no significant cytotoxicity
[5]
  expression of IL-17 (ELISA): inhibits the expression of IL-17 in a dose-dependent manner
[6]
  degree of destruction of joints and cartilage: not exhibited to be severe
[7]
  T cell proliferation: inhibited T cell proliferation in a dose-dependent manner
[8]
  activity of VEGF, analysis in terms of inhibition (%): significantly inhibits the activity of VEGF
  inhibitory effect against the VEGF expression, compared to comparators: greater inhibitory effect against the VEGF expression compared to those of TNF-α inhibitor and merformin
[9]; daurinol 1 μM
  Treg cells: 9.18%
[9]; daurinol 5 μM
  Treg cells: 16.6%
[10]
  expression of IL-1b in the tissues of the large intestine: significantly inhibit
  expression of IL-6 in the tissues of the large intestine: significantly inhibit
  expression of IL-8 in the tissues of the large intestine: significantly inhibit
  expression of IL-17 in the tissues of the large intestine: significantly inhibit
  expression of TNF-α in the tissues of the large intestine: significantly inhibit
